Values after ≈ are worked out from the molar mass of the structure shown. Like-named read-outs stand apart in the source and are kept apart here.
Legend:
[1] = cited from earlier work
[2] = Serum concentration after intravenous injection in mice; conditions: mouse
Mycoplasma pneumoniae = assay: microbe, parasite or virus in culture; assay type: cell-based; conditions: read-out: Minimum inhibitory concentration
Trychophyton rubrum = assay: microbe, parasite or virus in culture; assay type: cell-based; conditions: read-out: Minimum inhibitory concentration
mycoplasma = assay type: cell-based
poliovirus [3] = assay type: cell-based
[4] = system: Candida parapsiiosis IFO 0708; assay: microbe, parasite or virus in culture; assay type: cell-based; conditions: IFO0708, read-out: Minimum inhibitory concentration
Candida utilis IFO 0396 = assay: microbe, parasite or virus in culture; assay type: cell-based; conditions: Williopsis jadinii, IFO0396; read-out: Minimum inhibitory concentration
[5] = system: Vesicular stomatitis virus; assay: microbe, parasite or virus in culture; assay type: cell-based
[6] = system: Staphylococcus aureus 209P; assay: microbe, parasite or virus in culture; assay type: cell-based; conditions: read-out: Minimum inhibitory concentration
[7] = system: influenza virus-A2 /Kumamoto; assay type: in vivo, mice
[8] = system: mouse ascites tumor cells (Sarcoma 180); assay: Antitumor effect in mice; assay type: in vivo; conditions: intraperitoneally, once daily for six days
Experimental: 1,000,000 mouse ascites tumor cells (Sarcoma 180) were transplanted intraperitoneally into mice. 24 Hours after the mice were treated with the transplanted tumor cells, the mice were injected with various doses of the antibiotic once daily for six days intraperitoneally. […] It is that the life span of the antibiotic treated mice was prolonged.

yeasts = assay type: cell-based
[9] = Cytotoxicity, cylinder method; assay type: cell-based; conditions: read-out: Minimum Inhibitory Concentration, cylinder method
Experimental: (§1) A solution containing Antibiotic TS-885 was prepared as follows to determine the biological activity of Antibiotic TS-885. A 100 mg amount of 3-(5,7-dimethyl-2-hydroxy-4-oxo-6,8-decadienyl)-glutarimide (Antibiotic TS-885) was dissolved in a mixture of 0.6 ml of dimethyl-sulfoxide and 0.02 ml of polyoxyethylene sorbitane monolaurate (EO : 20). A 1.0 ml amount of a stirred saline solution (0.01 M phosphate buffered saline, pH 7.2) was added to the mixture to form a uniform solution which was followed by the addition of 48 ml of the saline solution. By this procedure a stock solution of Antibiotic TS-885 having a concentration of 2 mg/ml was prepared. The stock solution was diluted with the buffer solution for the following tests.
(§2) The cytotoxicity of Antibiotic TS-885 against various tissue culture cells was observed by the following two methods:
a. a cylinder method (on a thin seed plate)
a. A 10 ml amount of a cell suspension (3 × 10^5 cells/ml) was seeded in a petri dish having a diameter of 90 mm. The plates were incubated in a CO2 incubator at 37° C.
(§3) After 24 hours, the medium was removed and the plates were overlaid with 5 ml of an agar medium and one cylinder was placed on the medium. A 0.25 ml amount of a test sample was placed in the cylinder. After maintaining the plates for 2 hours at room temperature to diffuse Antibiotic TS-885 into the agar, the plate was incubated in the CO2 incubator at 37° C. After 48 hours, the cytotoxic effect of Antibiotic TS-885 was determined by the size of the diameter of the growth inhibitory zone around the cylinder. (2) In the tube dilution method, 2 × 10^5 cells were inoculated into a small test tube, and the tubes were incubated at 37° C for 24 hours. Solutions containing various concentrations of Antibiotic TS-885 were added to tubes of the cells and reincubated at […]. After 48 hours, the degenerated cells were microscopically observed.

poliovirus [10] = assay: microbe, parasite or virus in culture; assay type: cell-based
Solubility = assay type: physicochemical
[11] = Cytotoxicity, tube dilution method; assay type: cell-based; conditions: read-out: Minimum Inhibitory Concentration, tube dilution method
Experimental: as §1, §2
b. a tube dilution method
as §3

[12] = Toxicity in mice, repeated intravenous administration; assay type: in vivo; conditions: 20 mg/kg per day intravenous, once daily for 10 days (total 200 mg/kg)
bacteria = assay type: cell-based
Torula rubra var alpa = assay: Antimicrobial activity (Table III); assay type: cell-based; conditions: Malt Agar (M.A.), read-out: Minimum inhibitory concentration
Experimental: as §1
(§4) The antimicrobial spectra were observed by the pulp disc diffusion method and the agar streak method, and the results are shown in Tables II and III.

[13] = system: Saccharomyces fragilis IAM 7160; assay: Antimicrobial activity (Table III); assay type: cell-based; conditions: IAM7160, Malt Agar (M.A.), read-out: Minimum inhibitory concentration
Experimental: as §1, §4

[14] = system: Phodotorula glutinis IFO 0754; assay: Antimicrobial activity (Table III); assay type: cell-based; conditions: Malt Agar (M.A.); read-out: Minimum inhibitory concentration
Experimental: as §1, §4

[15] = system: Brettanomyces anomalus IFO 0648; assay: Antimicrobial activity (Table III); assay type: cell-based; conditions: IFO0648, Malt Agar (M.A.), read-out: Minimum inhibitory concentration
Experimental: as §1, §4

[16] = system: Saccharomyces rosei AHU 3174; assay: Antimicrobial activity (Table III); assay type: cell-based; conditions: Torulaspora delbrueckii, AHU3174; Malt Agar (M.A.); read-out: Minimum inhibitory concentration
Experimental: as §1, §4

Candida alibicans = assay: Antimicrobial activity (Table III); assay type: cell-based; conditions: Sabouraud's agar (S.A.), read-out: Minimum inhibitory concentration
Experimental: as §1, §4

[17] = system: Saccharomyces sake HUT 7119; assay: Antimicrobial activity (Table III); assay type: cell-based; conditions: HUT7119, Malt Agar (M.A.), read-out: Minimum inhibitory concentration
Experimental: as §1, §4

[18] = system: Cryptococcus albidus IFO 0378; assay: Antimicrobial activity (Table III); assay type: cell-based; conditions: Naganishia albida, IFO0378; Malt Agar (M.A.); read-out: Minimum inhibitory concentration
Experimental: as §1, §4

R. rubra IFO 0001 = assay: Antimicrobial activity (Table III); assay type: cell-based; conditions: Malt Agar (M.A.); read-out: Minimum inhibitory concentration
Experimental: as §1, §4

[19] = system: Hansenula anomala IFO 0118; assay: Antimicrobial activity (Table III); assay type: cell-based; conditions: IFO0118, Malt Agar (M.A.), read-out: Minimum inhibitory concentration
Experimental: as §1, §4

Candida tropicalis = assay: microbe, parasite or virus in culture; assay type: cell-based; conditions: read-out: Minimum inhibitory concentration
[20] = Vesicular stomatitis virus, in Gallus gallus, read-out: Diameter of plaque free zone
[21] = chicken, chick embryo fibroblast cells, MEM medium
[22] = human, hela s3 cells, YLE medium
[23] = monkey, monkey kidney cells, MEM medium
[24] = Enterovirus C, read-out: Diameter of plaque free zone

**Q.** Which results are given for `C=C/C(C)=C/[C@H](C)C(=O)C[C@H](O)CC1CC(=O)NC(=O)C1` [Streptimidone]?
**A.** Solubility ([1]; benzene, ethyl acetate, acetone, ethanol): Soluble; Solubility ([1]; water): insoluble

**Q.** Which results are given for `CC=CC(C)=CC(C)C(=O)CC(O)CC1CC(=O)NC(=O)C1` (stereo not shown) [Antibiotic TS-885, 3-(5,7-dimethyl-2-hydroxy-4-oxo-6,8-decadienyl)-glutarimide]?
**A.** concentration at 10 min ([2]; 2.5 mg/kg): 1800 ng/mL; concentration at 0.5 h ([2]; 2.5 mg/kg): 580 ng/mL; concentration at 10 min ([2]; 25 mg/kg): 2900 ng/mL; concentration at 0.5 h ([2]; 25 mg/kg): 2400 ng/mL; MIC (Mycoplasma pneumoniae): > 1000 µg/mL; MIC (Trychophyton rubrum): 1000 µg/mL (≈ 3250 µM); antimycoplasmal activity (mycoplasma): no antibacterial and antimycoplasmal activity; Antiviral effect (poliovirus [3]; 0.5 mcg/ml): Toxic; Antiviral effect (poliovirus [3]; 1 mcg/ml): Toxic; Antiviral effect (poliovirus [3]; 10 mcg/ml): Toxic; MIC [4]: > 100 µg/mL; MIC (Candida utilis IFO 0396): 100 µg/mL (≈ 325 µM); Antiviral effect ([5]; 20 mcg/ml): toxic; Antiviral effect ([5]; 62.5 mcg/ml): toxic; Antiviral effect ([5]; 100 mcg/ml): toxic; Antiviral effect ([5]; 125 mcg/ml): toxic; Antiviral effect ([5]; 250 mcg/ml): toxic; zone of inhibition at 0.3 µg/mL [5, 20]: 15.4 mm; zone of inhibition at 0.6 µg/mL [5, 20]: 17.4 mm; zone of inhibition at 1.25 µg/mL [5, 20]: 18.1 mm; zone of inhibition at 2.5 µg/mL [5, 20]: 18.9 mm; zone of inhibition at 5 µg/mL [5, 20]: 19.6 mm; zone of inhibition at 10 µg/mL [5, 20]: 22.9 mm; zone of inhibition at 20 µg/mL [5, 20]: 26.2 mm; zone of inhibition at 62.5 µg/mL [5, 20]: 28.8 mm; zone of inhibition at 100 µg/mL [5, 20]: 31.7 mm; zone of inhibition at 125 µg/mL [5, 20]: 33.2 mm; zone of inhibition at 250 µg/mL [5, 20]: 42 mm; MIC [6]: > 1000 µg/mL; Survival / treated × 100 % ([7]; 7 mg/kg intraperitoneally, survival day 7): 100%; Survival / treated × 100 % ([7]; 7 mg/kg intraperitoneally, survival day 10): 60%; Survival / treated × 100 % ([7]; 7 mg/kg intraperitoneally, survival day 13): 35%; Survival / treated × 100 % ([7]; 7 mg/kg intraperitoneally, survival day 15): 35%; Survival / treated × 100 % ([7]; 7 mg/kg intraperitoneally, survival day 20): 35%; Survival / treated × 100 % ([7]; 22 mg/kg intraperitoneally, survival day 7): 100%; Survival / treated × 100 % ([7]; 22 mg/kg intraperitoneally, survival day 10): 80%; Survival / treated × 100 % ([7]; 22 mg/kg intraperitoneally, survival day 13): 50%; Survival / treated × 100 % ([7]; 22 mg/kg intraperitoneally, survival day 15): 50%; Survival / treated × 100 % ([7]; 22 mg/kg intraperitoneally, survival day 20): 50%; survival rate ([7]; 22 mg/kg, day not stated (footnote to Table VIII)): 50%; growth of the ascites tumor ([8]; 2.5 mg/mouse per day): inhibits growth of the ascites tumor; life span of the antibiotic treated mice [8]: prolonged; inhibitory activity against some yeasts (yeasts): inhibitory activity against some yeasts; MCC at 48 h [9, 21]: 0.5 µg/mL; MCC at 48 h [9, 22]: 0.2 µg/mL; MCC at 48 h [9, 23]: 0.2 µg/mL; MCC at 48 h ([9]; mouse, l-cells, YLE medium): 0.25 µg/mL; Antiviral effect (poliovirus [10]; 12.5 mcg/ml): toxic; Antiviral effect (poliovirus [10]; 25 mcg/ml): toxic; zone of inhibition at 0.5 µg/mL (poliovirus [10]; [24]): 15 mm; zone of inhibition at 1 µg/mL (poliovirus [10]; [24]): 19.4 mm; zone of inhibition at 5 µg/mL (poliovirus [10]; [24]): 25 mm; zone of inhibition at 6.25 µg/mL (poliovirus [10]; [24]): 28.4 mm; zone of inhibition at 12.5 µg/mL (poliovirus [10]; [24]): 29.2 mm; zone of inhibition at 25 µg/mL (poliovirus [10]; [24]): 36 mm; Solubility (Solubility; acetone, chloroform, benzene, ethylacetate, ethanol, methanol, 1% aqueous sodium hydroxide solution, and pyridine): Soluble; Solubility (Solubility; benzene, ethyl acetate, acetone, ethanol 1% NaOH): Soluble; Solubility (Solubility; ether): Sparingly soluble; Solubility (Solubility; water): water insoluble; Solubility (Solubility; water and 5% aqueous hydrochloric acid): Insoluble; MCC at 48 h [11, 21]: 1 µg/mL; MCC at 48 h [11, 22]: 0.4 µg/mL; MCC at 48 h ([11]; human, p3 hr-1 cells, MEM medium): 0.4 µg/mL; MCC at 48 h [11, 23]: 0.4 µg/mL; MCC at 48 h ([11]; mouse, l-cells, YLE medium): 0.5 µg/mL; signs of toxicity [12]: No signs of toxicity were observed; antibacterial activity (bacteria): no antibacterial; MIC (Torula rubra var alpa): 4 µg/mL (≈ 13 µM); MIC [13]: 20 µg/mL (≈ 65.1 µM); MIC [14]: 100 µg/mL (≈ 325 µM); MIC [15]: > 100 µg/mL; MIC [16]: 100 µg/mL (≈ 325 µM); MIC (Candida alibicans): > 100 µg/mL; MIC [17]: 4 µg/mL (≈ 13 µM); MIC [18]: 4 µg/mL (≈ 13 µM); MIC (R. rubra IFO 0001): 20 µg/mL (≈ 65.1 µM); MIC [19]: 20 µg/mL (≈ 65.1 µM); MIC (Candida tropicalis): 100 µg/mL (≈ 325 µM)

**Q.** With `NC12CC3CC(CC(C3)C1)C2` [Amantadine, 1,Adamantylamine, reference compound] as the compound, how does the “Survival / treated × 100 %” value ([7]; 20 mg/kg, survival day 7) read?
**A.** 100%

**Q.** And the “Survival / treated × 100 %” value ([7]; 20 mg/kg, survival day 10)?
**A.** 60%

**Q.** What about the “Survival / treated × 100 %” value ([7]; 20 mg/kg, survival day 13) of the same compound?
**A.** 10%

**Q.** What about the “Survival / treated × 100 %” value ([7]; 20 mg/kg, survival day 15) of the same compound?
**A.** 0%

**Q.** And the “Survival / treated × 100 %” value ([7]; 20 mg/kg, survival day 20)?
**A.** 0%

Reference: patent publication US3988462A (priority 1972, dated 1976)
